From US20100204152A1, “USE OF GLUTEN EXORPHIN C : AS A THERAPEUTIC AGENT” (priority 2007, published 2010) come the findings set out here.

Where no end group is shown, it is not given here.

The test system of test [1] is LPS-induced TNF-alpha production in human macrophages. The experiment in a line: TNF alpha production assay. The settings on record: 10 micrograms per ml; 30 min preincubation; lipopolysaccharide 200 ng/ml; overnight; ELISA. The format is cell-based. The text has this: Not stimulated macrophages served as negative background control.
(In general: In an ELISA, binding on a coated surface is turned into a signal by an enzyme label.)

The next test has as its system RAW 264.7 cells. The experiment in a line: Phagocytosis assay. The format is cell-based, mouse. The settings on record: 10 micrograms per ml, Fluorescein-labeled Escherichia coli, flow cytometry. In general terms: Flow cytometry measures light scatter and fluorescence of single cells or particles in a stream.
In test [2] the test system is Primary Human endothelial cells (HUVEC). The experiment in a line: Endothelial cell migration assay. The format is cell-based. The settings on record: 10 micrograms per ml, 22 hours. On the procedure:
Thereafter, designated concentration of testing peptides—10 micrograms per ml—was added in duplicate wells.

Test [3] has as its system hepatitis B virus (HBV) ayw strain in HepG2-2.2.15 cells. The experiment in a line: HBV experimental assay system (secreted HBV DNA, TaqMan PCR). The settings on record: 10 micrograms per ml, six days, HBV DNA by TaqMan PCR. The format is cell-based. The text has this:
HepG2-2.2.15 is a stable cell line containing the hepatitis B virus (HBV) ayw strain genome (ATCC Cat. No. CRL-11997). Antiviral compounds blocking any late step of viral replication such as transcription, translation, pregenome encapsidation, reverse transcription, particle assembly and release can be identified and characterized using this cell line. In this assay, an active compound will reduce the production of secreted HBV from cells, measured by utilizing real time quantitative PCR (TaqMan) assay to directly and accurately measure HBV DNA copies.
HepG2-2.2.15 cells were plated in 96-well microtiter plates. After 16-24 hours the confluent monolayer of HepG2-2.2.15 cells was washed and the medium was replaced with complete medium containing test peptides—10 micrograms per ml—in duplicate. […] Six days following the initial administration of the peptides, the cell culture supernatants was collected, treated with pronase and DNAse and then used in a real-time quantitative TaqMan PCR assay. The PCR-amplified HBV DNA was detected in real-time by monitoring increases in fluorescence signals that result from the exonucleolytic degradation of a quenched fluorescence probe molecule that hybridizes to the amplified HBV DNA. […] Antiviral activity was calculated from the reduction in HBV DNA levels (% virus control). […]
On the technique in general: Real-time PCR tracks product formation cycle by cycle.

For a further test, the system named is HCMV strain AD169. The test can be described thus: HCMV plaque formation assay in MRC-5 cells. The settings on record: for inhibition of HCMV plaque formation as compared to the virus control: 10 micrograms per ml, 7-10 days.
For another test, the system named is HUVEC. The test can be described thus: Endothelial tube formation assay. Particulars: 10 micrograms per ml, 20 hours, average tubule length. The format is cell-based, human. The text has this:
Positive control was vehicle only.

For a further test, the system named is spleen cells. The test can be described thus: Th1/Th2 cytokine profiling assay. Type of test: cell-based, Balb/c mice. Particulars: 10 micrograms per ml; Ovalbumin restimulation; 72 hours; supernatant.

Text for spleen cells: The Balb/c mice (originated in 1923, it is a popular strain and is used in many different research disciplines. Also classified as an inbred from the production of 20 or more successive brother-sister matings, the Balb/c mouse is albino and small in size) were immunized on Days 1, 15, and 29 with Ovalbumin (Ovalbumin is the main protein found in egg white, commonly used to stimulate an immunological reaction in test animals) in PBS (5 micrograms/injection). On day 50, spleens of the mice were harvested (3 weeks after last boost with Ovalbumin). Cells were cultured (2×10^5/well in triplicate) and incubated with culture medium or test peptides—10 micrograms per ml—for 30 min. Thereafter, additional Ovalbumin was added to the cells at 10 micrograms/ml for in vitro restimulation of the cells. 72 hours later, cell supernatants were harvested and assayed using the Becton Dickinson Mouse Th1/Th2 Cytokine CBA Kit. This kit can be used to measure Interleukin-2 (IL-2), Interleukin-4 (IL-4), Interleukin-5 (IL-5), Interferon-γ (IFN-γ), and Tumor Necrosis Factor-α (TNF-α) protein levels in a single sample. The kit performance has been optimized for analysis of physiologically relevant concentrations (pg/ml levels) of specific cytokine proteins in tissue culture supernatants and serum samples.

Turning to AVPYPQR [peptide 1], in test [1], the “inhibition of the LPS-induced TNF-alpha production in human macrophages” value is given as 22.4%. In the test on RAW 264.7 cells, the “effect on the phagocytic activity of murine macrophages (increase)” value is 22.9%. Besides, the “inhibition of the migration of human endothelial cells” value in test [2] was 35%. The “inhibition of HBV replication as compared to the virus control infection” value in test [3] is listed as “no effect”. Further, the “inhibition of HCMV plaque formation as compared to the virus control” value with HCMV strain AD169 was “did not inhibit”. For the same compound, the “inhibition of the tube formation of endothelial cells” value in the test on HUVEC came out at 18%. Moreover, in the test with spleen cells, the “IFNγ spleen cells; TH1 response (% of control)” value is reported as 52.4 % of control, the “IL-2 spleen cells (% of control)” value is on record as 55.7 % of control, the “IL-4 spleen cells; TH2 response (% of control)” value is 0.0 % of control and the “IL-5 spleen cells; TH2 response (% of control)” value was 53.0 % of control. Moreover, the “TNF-a spleen cells; TH1 response (% of control)” value in the test with spleen cells is listed as 86.6 % of control.

Consider `Nc1nc(O)c2ncn(COC(CO)CO)c2n1` [Ganciclovir, reference compound], for which the “antiviral activity of positive control compound (HCMV)” value with HCMV strain AD169 (positive control) is “expected levels of antiviral activity”.

As to “Tyr-Pro-Ile-Ser-Leu-OH (YPISL-OH) [peptide 2]”, the “inhibition of the LPS-induced TNF-alpha production in human macrophages” value in test [1] is “did not induced or inhibit”. Also, the “effect on the phagocytic activity of murine macrophages (increase)” value in the test on RAW 264.7 cells is “no inhibitory or activating effect”. The “inhibition of HBV replication as compared to the virus control infection” value in test [3] is given as 41.4%. Further, the “inhibition of HCMV plaque formation as compared to the virus control” value in the test with HCMV strain AD169 is “did not inhibit”. Moreover, in the test with HUVEC, the “inhibition of the tube formation of endothelial cells” value is reported as 100%. In addition, in the test on spleen cells, the “IFNγ spleen cells; TH1 response (% of control)” value is 53.9 % of control, the “IL-2 spleen cells (% of control)” value is reported as 124.0 % of control, the “IL-4 spleen cells; TH2 response (% of control)” value is on record as 94.1 % of control and the “IL-5 spleen cells; TH2 response (% of control)” value is given as 86.6 % of control. Also, the “TNF-a spleen cells; TH1 response (% of control)” value with spleen cells is given as 126.2 % of control.
